Where a name gives a salt, the structure may show the parent alone. Read-outs that look alike come from different tables or passages of the source.
Target: T1, human cannabinoid CB2 receptor (Homo sapiens, UniProt P34972)
T1 construct: expressed in transfected cells; host or cells: Saccharomyces cerevisiae strain MMY23 (cassette integrated at the ura3 locus, GPD promoter)
Assay: Cannabinoid CB2 receptor agonist activity in yeast cells (FDGlu fluorescence)
Type: cell-based
Details: for Emax: read-out: efficacy value (Emax) at the cloned human cannabinoid CB2 receptor
Procedure: The cannabinoid CB2 receptor agonist activity of the compounds of formula (I) was determined in accordance with the following experimental method.
Yeast (Saccharomyces cerevisiae) cells expressing the human cannabinoid CB2 receptor were generated by integration of an expression cassette into the ura3 chromosomal locus of yeast strain MMY23. This cassette consisted of DNA sequence encoding the human CB2 receptor flanked by the yeast GPD promoter to the 5′ end of CB2 and a yeast transcriptional terminator sequence to the 3′ end of CB2. MMY23 expresses a yeast/mammalian chimeric G-protein alpha subunit in which the C-terminal 5 amino acids of Gpal are replaced with the C-terminal 5 amino acids of human Gαi3 (as described in Brown et al. (2000), Yeast 16:11-22).
Agonists were prepared as 10 mM stocks in DMSO. […] Agonist solutions in DMSO (1% final assay volume) were transferred into black, clear bottom, microtitre plates from NUNC (96- or 384-well). Cells were suspended at a density of 0.2 OD600/ml in SC media lacking histidine, uracil, tryptophan, adenine and leucine and supplemented with 10 mM 3-aminotriazole, 0.1M sodium phosphate pH 7.0, and […] fluorescein di-β-D-glucopyranoside (FDGlu). […] After incubation at 30° C. for 24 hours, fluorescence resulting from degradation of FDGlu to fluorescein due to exoglucanase, an endogenous yeast enzyme produced during agonist-stimulated cell growth, was determined using a Spectrofluor microtitre plate reader (Tecan; excitation wavelength: 485 nm; emission wavelength: 535 nm). Fluorescence was plotted against compound concentration and iteratively curve fitted using a four parameter fit to generate a concentration effect value. Efficacy (Emax) was calculated from the equation
Equieffective molar ratio (EMR) values were calculated from the equation

[1] = Emax relative to HU210, yeast expressing human CB2
[2] = yeast (Saccharomyces cerevisiae) expressing human CB2, agonist, 30° C. for 24 hours, read-out: EC50 at the cloned human cannabinoid CB2 receptor

T1 sequence (P34972 whole entry): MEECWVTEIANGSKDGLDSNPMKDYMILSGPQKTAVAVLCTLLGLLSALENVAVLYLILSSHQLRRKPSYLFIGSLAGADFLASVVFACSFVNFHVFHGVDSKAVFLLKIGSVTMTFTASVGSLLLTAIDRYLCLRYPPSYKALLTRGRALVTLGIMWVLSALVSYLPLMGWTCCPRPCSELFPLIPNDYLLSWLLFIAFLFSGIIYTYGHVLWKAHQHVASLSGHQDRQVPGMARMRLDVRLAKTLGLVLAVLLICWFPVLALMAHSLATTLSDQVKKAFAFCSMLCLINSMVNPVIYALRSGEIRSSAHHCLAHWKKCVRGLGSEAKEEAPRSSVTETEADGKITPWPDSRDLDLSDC

Row | Structure (SMILES) | Emax [1] [%] | EC50 [2] [nM] | EC50 [nM] | Emax [%]
1 | Fc1ccc(Nc2cc(C3CC3)c(CNCC3CCCC3)cn2)cc1Cl [Example 44, (3-Chloro-4-fluoro-phenyl)-{5-[(cyclopentylmethyl-amino)-methyl]-4-cyclopropyl-pyridin-2-yl}-amine, compound with formicacid (1:1.4)] | > 50 | < 300 | – | –
2 | Cc1c(Cl)cccc1Nc1cc(C2CC2)c(CNCC2CCC2)cn1 [Example 29, (3-Chloro-2-methyl-phenyl)-{5-[(cyclobutylmethyl-amino)-methyl]-4-cyclopropyl-pyridin-2-yl}-amine,compound with formic acid (1:1.57)] | > 50 | 300 to 1000 | – | –
3 | CC(C)c1cc(Nc2cccc(Cl)c2)ncc1CN1CCC1 [Example 59, (5-Azetidin-1-ylmethyl-4-isopropyl-pyridin-2-yl)-(3-chloro-phenyl)-amine.dihydrochloride] | – | < 300 | – | –
4 | CC(C)c1cc(Nc2ccc(F)cc2Cl)ncc1CNCC1CCC1 [Example 24, (2-Chloro-4-fluoro-phenyl)-{5-[(cyclobutylmethyl-amino)-methyl]-4-isopropyl-pyridin-2-yl}-amine,compound with formic acid (1:1.75)] | – | – | 300 to 1000 | > 50
5 | CC(C)c1cc(Nc2cc(Cl)ccc2Cl)ncc1CNCC1CCC1 [Example 20, {5-[(Cyclobutylmethyl-amino)-methyl]-4-isopropyl-pyridin-2-yl}-(2,5-dichloro-phenyl)-amine,compound with formic acid (1:1)] | – | – | < 300 | > 50
6 | CC(C)c1cc(Nc2ccc(Cl)cc2Cl)ncc1CN1CCSCC1 [Example 61, (2,4-Dichloro-phenyl)-(4-isopropyl-5thiomorpholin-4-ylmethyl-pyridin-2-yl)-amine dihydrochloride] | – | – | < 300 | > 50
7 | CC(C)c1cc(Nc2cccc(Cl)c2)ncc1CN1CCC(F)(F)CC1 [Example 57, (3-Chloro-phenyl)-[5-(4,4-difluoro-piperidin-1-ylmethyl)-4-isopropylpyridin-2-yl]-amine dihydrochloride] | – | – | < 300 | > 50
8 | CC(C)c1cc(Nc2ccc(OC(F)(F)F)cc2Br)ncc1CNCC1CCC1 [Example 26, (2-Bromo-4-trifluoromethoxy-phenyl)-{5-[(cyclobutylmethyl-amino)-methyl]-4-isopropyl-pyridin-2-yl}-amine, compound with formicacid (1:1)] | – | 300 to 1000 | – | > 50
9 | CC(C)c1cc(Nc2cccc(Cl)c2)ncc1CNCC1CC1 [Example 22, (3-Chloro-phenyl)-{5-[(cyclopropylmethyl-amino)-methyl]-4-isopropyl-pyridin-2-yl}-amine, compound with formic acid(1:1.25)] | – | – | < 300 | > 50
10 | CC(C)CNCc1cnc(Nc2ccc(Cl)cc2Cl)cc1C(C)C [Example 23, (2,4-Dichloro-phenyl)-[5-(isobutylamino-methyl)-4-isopropyl-pyridin-2-yl]-amine, compound withformic acid (1:1)] | – | – | < 300 | > 50
11 | CC(C)c1cc(Nc2ccc(Cl)c(Cl)c2)ncc1CNCC1CCC1 [Example 17, {5-[(Cyclobutylmethyl-amino)-methyl]-4-isopropyl-pyridin-2-yl}-(3,4-dichloro-phenyl)-amine,compound with formic acid (1:1.2)] | – | – | < 300 | > 50
12 | CC(C)c1cc(Nc2ccc(F)c(Cl)c2)ncc1CNCC1CC1 [Example 34, (3-Chloro-4-fluoro-phenyl)-{5-[(cyclopropylmethyl-amino)-methyl]-4-isopropyl-pyridin-2-yl}-amine, compound with formic acid(1:1)] | – | 300 to 1000 | – | > 50
13 | Clc1cccc(Nc2cc(C3CC3)c(CN3CCOCC3)cn2)c1 [Example 4, (3-Chlorophenyl)-(4-cyclopropyl-5-morpholin-4-ylmethyl-pyridin-2-yl)-aminedihydrochloride] | – | – | < 300 | > 50
14 | Clc1cccc(Nc2cc(C3CC3)c(CNC3CC3)cn2)c1 [Example 2, (3-Chlorophenyl)-(4-cyclopropyl-5-cyclopropylaminomethyl-pyridin-2-yl)-amineacetate] | > 50 | < 300 | – | –
15 | CC(C)c1cc(Nc2cccc(Cl)c2)ncc1CN1CCSCC1 [Example 60, (3-Chloro-phenyl)-(4-isopropyl-5-thiomorpholin-4-ylmethyl-pyridin-2-yl)-amine. dihydrochloride] | – | – | < 300 | > 50
